Source: patent US12344610B2, “APOL1 inhibitors and methods of use” (Maze Therapeutics, Inc., priority 2022, dated 2025)
Like-named read-outs stand apart in the source and are kept apart here.

Tests used:
Assay type in all cases: cell-based
Settings in all cases: geometric mean of at least 2 assay runs, † = single assay run
[1] = tested on: Trypanosoma brucei Lister 427 VSG221 with APOL1 G2 recombinant protein; assay: APOL1 G2 trypanosome cell rescue assay (Example B5)
Method in brief: (§1)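 Viability read by CellTiter-Glo luminescence after 20 h co-incubation (37° C, 5% CO2) of 250 trypanosomes/well in modified HMI-9 with test compound (duplicate 11-point, 2-fold dilutions, 0.4% DMSO) and APOL1 protein, […]. Protein: mature residues 28-398, E. coli inclusion-body refolded, tag cleaved, in DDM.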

[2] = tested on: Trypanosoma brucei Lister 427 VSG221 with APOL1 G0 recombinant protein; assay: APOL1 G0 trypanosome cell rescue assay (Example B5)
Method in brief: as §1

[3] = tested on: HEK293 cells overexpressing APOL1 G2; assay: APOL1 G2 HEK293 cell rescue assay (reversal of cell death caused by overexpression of APOL1)
Method in brief: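 Each compound tested in duplicate wells on one plate per run, with values usually the geometric mean across at least two runs on different days, occasionally from one run only. Read-out: concentration giving half-maximal rescue of APOL1 G2 overexpression-induced death of HEK293 cells.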

[4] = tested on: Trypanosoma brucei Lister 427 VSG221 with APOL1 G1 recombinant protein; assay: APOL1 G1 trypanosome cell rescue assay (Example B5)
Method in brief: as §1

[5] = Trypanosoma brucei, 20 h, read-out: APOL1 G2 Trypanosome Rescue EC50, Trypanosoma brucei Lister 427 VSG221 with APOL1 G2 recombinant protein, 20 hours, CellTiter-Glo
[6] = Trypanosoma brucei, 20 h, read-out: APOL1 G0 Trypanosome Rescue EC50, Trypanosoma brucei Lister 427 VSG221 with APOL1 G0 recombinant protein, 20 hours, CellTiter-Glo
[7] = Homo sapiens, HEK293, HEK293 overexpressing APOL1 G2
[8] = Trypanosoma brucei, 20 h, read-out: APOL1 G1 Trypanosome Rescue EC50, Trypanosoma brucei Lister 427 VSG221 with APOL1 G1 recombinant protein, 20 hours, CellTiter-Glo

With `CS(=O)(=O)c1ccc(OCCN2CCC3(CC2)C(=O)Nc2ccc(Cl)cc23)cc1C(O)CO` (stereo not drawn) [Compound 216, 5-chloro-1′-{2-[3-(1,2-dihydroxyethyl)-4-methanesulfonylphenoxy]ethyl}-1,2-dihydrospiro[indole-3,4′-piperidin]-2-one] as the compound, how does the EC50 [1, 5] read?
Its EC50 is 231 nM.

And the EC50 [2, 6]?
The EC50 was 629 nM.

What about the EC50 [3, 7] of the same compound?
The EC50 was 281 nM.

What about the EC50 [4, 8] of the same compound?
The EC50 was 912 nM.

`Cn1c(=O)[nH]c2cc(OCCN3CCC4(CC3)C(=O)Nc3ccc(Cl)cc34)cnc21` [Compound 247, 5-chloro-1′-[2-({3-methyl-2-oxo-1H,2H,3H-imidazo[4,5-b]pyridin-6-yl}oxy)ethyl]-1,2-dihydrospiro[indole-3,4′-piperidin]-2-one] was tested. Which EC50 [1, 5] did it give?
Its EC50 is 81 nM.

And the EC50 [2, 6]?
Its EC50 is 186 nM.

What about the EC50 [3, 7] of the same compound?
The EC50 was 92 nM.

What about the EC50 [4, 8] of the same compound?
Its EC50 is 246 nM.

Which EC50 [1, 5] does the source give for `CNC(=O)C1(c2ccc(OCCN3CCC4(CC3)C(=O)Nc3ccc(C#N)cc34)cc2)COC1` [Compound 255, 3-[4-(2-{5-cyano-2-oxo-1,2-dihydrospiro[indole-3,4′-piperidin]-1′-yl}ethoxy)phenyl]-N-methyloxetane-3-carboxamide] here?
Its EC50 is 575 nM.

And the EC50 [2, 6]?
The EC50 was 1380 nM.

What about the EC50 [3, 7] of the same compound?
The EC50 was 353 nM.

What about the EC50 [4, 8] of the same compound?
Its EC50 is 2920 nM.

`CN1C(=O)C2(CCN(CCOc3ccc(C(=O)N4CCS(=O)(=O)CC4)c(C(F)(F)F)c3)CC2)c2cc(C#N)ccc21` [Compound 261, 1′-{2-[4-(1,1-dioxo-1λ^6-thiomorpholine-4-carbonyl)-3-(trifluoromethyl)phenoxy]ethyl}-1-methyl-2-oxo-1,2-dihydrospiro[indole-3,4′-piperidine]-5-carbonitrile] was tested. Which EC50 [1, 5] did it give?
Its EC50 is 29.6 nM.

What about the EC50 [2, 6] of the same compound?
Its EC50 is 84 nM.

And the EC50 [3, 7]?
Its EC50 is 89 nM.

And the EC50 [4, 8]?
Its EC50 is 100 nM.

Which EC50 [1, 5] does the source give for `CC(COc1ccc(C2(S(C)(=O)=O)COC2)cc1)N1CCC2(CC1)C(=O)Nc1ccc(C#N)cc12` (single isomer, unassigned) [Compound 263, (S) or (R)-1′-{1-[4-(3-methanesulfonyloxetan-3-yl)phenoxy]propan-2-yl}-2-oxo-1,2-dihydrospiro[indole-3,4′-piperidine]-5-carbonitrile] here?
The EC50 was 95.3 nM.

And the EC50 [2, 6]?
The EC50 was 226 nM.

And the EC50 ([3]; HEK293 overexpressing APOL1 G2)?
Its EC50 is 198 nM.

What about the EC50 [4, 8] of the same compound?
Its EC50 is 320 nM.

`CS(=O)(=O)N1CC2(CN(C(=O)c3ccc(OCCN4CCC5(CC4)C(=O)Nc4ccc(Cl)cc45)cc3F)C2)C1` [Compound 273, 5-chloro-1′-[2-(3-fluoro-4-{6-methanesulfonyl-2,6-diazaspiro[3.3]heptane-2-carbonyl}phenoxy)ethyl]-1,2-dihydrospiro[indole-3,4′-piperidin]-2-one] was tested. Which EC50 [1, 5] did it give?
The EC50 was 25.8 nM.

And the EC50 [2, 6]?
The EC50 was 64.9 nM.

And the EC50 [3, 7]?
The EC50 was 88.5 nM.

What about the EC50 [4, 8] of the same compound?
Its EC50 is 71.6 nM.

How did the EC50 ([1]; read-out: APOL1 G2 Trypanosome Rescue EC50, Trypanosoma brucei Lister 427 VSG221 with APOL1 G2 recombinant protein, 20 hours, CellTiter-Glo) turn out when `CS(=O)(=O)c1ccc(OCCN2CCC3(CC2)C(=O)Nc2ccc(Cl)cc23)cc1C(F)CF` (single isomer, unassigned) [Compound 219, 5-chloro-1′-(2-{3-[(1R or 1S)-1,2-difluoroethyl]-4-methanesulfonylphenoxy}ethyl)-1,2-dihydrospiro[indole-3,4′-piperidin]-2-one] was run?
The EC50 was 10.5 nM.

And the EC50 ([2]; read-out: APOL1 G0 Trypanosome Rescue EC50, Trypanosoma brucei Lister 427 VSG221 with APOL1 G0 recombinant protein, 20 hours, CellTiter-Glo)?
The EC50 was 22.3 nM.

And the EC50 ([3]; HEK293 overexpressing APOL1 G2)?
The EC50 was 26.3 nM.

What about the EC50 ([4]; read-out: APOL1 G1 Trypanosome Rescue EC50, Trypanosoma brucei Lister 427 VSG221 with APOL1 G1 recombinant protein, 20 hours, CellTiter-Glo) of the same compound?
The EC50 was 39 nM.

What does the source list for `C[C@]1(O)C[C@H](N2C(=O)CCc3cc(OCCN4CCC5(CC4)C(=O)Nc4ccc(Cl)cc45)cnc32)C1` (single isomer, unassigned) [Compound 307, 5-chloro-1′-[2-({7-oxo-8-[(trans)-3-hydroxy-3-methylcyclobutyl]-5,6,7,8-tetrahydro-1,8-naphthyridin-3-yl}oxy)ethyl]-1,2-dihydrospiro[indole-3,4′-piperidin]-2-one]?
EC50 [1, 5]: 27.2 nM; EC50 [2, 6]: 65.7 nM; EC50 [3, 7]: 20.4 nM; EC50 [4, 8]: 79.7 nM

What does the source list for `CS(=O)(=O)C1CN(C(=O)c2ccc(OCCN3CCC4(CC3)C(=O)Nc3ccc(Cl)cc34)cc2F)C1` [Compound 233, 5-chloro-1′-{2-[3-fluoro-4-(3-methanesulfonyl-azetidine-1-carbonyl)phenoxy]ethyl}-1,2-dihydrospiro[indole-3,4′-piperidin]-2-one]?
EC50 [1, 5]: 41.1 nM; EC50 [2, 6]: 81.7 nM; EC50 [3, 7]: 57.7 nM; EC50 [4, 8]: 134 nM
